The results in this text go back to patent publication US12643871B2, “Aryl formamide compound containing chiral sulfur oxide or salt thereof, preparation method, herbicidal composition and use thereof” (Qingdao Kingagroot Chemical Compound Co., Ltd., priority 2019, dated 2026).

What all share (assay): Weeding effect in post-emergence stage
What all share (assay type): in vivo
Common to all, as to details: 250 g/ha; 2 leaf stage; 15 days after application; fresh weight control rate

One experiment deals with Amaranthus retroflexus. The source says: (§1) The activity level criteria for harmful plant damage (i.e., growth control rate) are as follows: • Level 5: growth control rate is above 85%; • Level 4: growth control rate is greater than or equal to 60% and less than 85%; • Level 3: growth control rate is greater than or equal to 40% and less than 60%; • Level 2: growth control rate is greater than or equal to 20% and less than 40%; • Level 1: growth control rate is greater than or equal to 5% and less than 20%; • Level 0: growth control rate is less than 5%.
(§2) The above growth control rates are fresh weight control rates.
(§3) Experiment on weeding effect in post-emergence stage: monocotyledonous and dicotyledonous weed seeds (Descurainia sophia, Capsella bursa-pastoris, Galium aparine, Stellaria media, Lithospermum arvense, Rorippa indica, Alopecurus aequalis, Beckmannia syzigachne, Sclerochloa dura, Phleum paniculatum, Bromus japonicus, Aegilops tauschii, Phalaris arundinacea, Amaranthus retroflexus, Chenopodiaceae, Commelina communis, Sonchus arvensis, convolvulus arvensis, Cirsium setosum, Solanum nigrum, Acalypha australis, Digitaria sanguinalis, Echinochloa crusgalli, Setaria viridis, Setaria glauca, Leptochloa chinensis, Monochoria vaginalis, Sagittaria trifolia, Scirpus juncoides, Cyperus rotundus, Cyperus iria, Cyperus difformis, Fimbristylis, Portulaca oleracea, Xanthium sibiricum, Pharbitis nil) and major crop seeds (wheat, corn, rice, soybean, cotton, oilseed rape, millet, sorghum, potato, sesame, ricinus) were placed in plastic pots filled with soil, then covered with 0.5-2 cm of soil, allowed to grow in a good greenhouse environment. After 2 weeks of sowing, the test plants were treated in the 2 leaf stage. The tested compounds of the present invention were respectively dissolved in acetone, then added with Tween 80 and 1.5 liter/ha of emulsifiable concentrate of methyl oleate as synergist, diluted with a certain amount of water to obtain a solution with a certain concentration, and sprayed with a spray tower onto the plants. After the application, the plants were cultured for 15 days in the greenhouse, and then the experimental results of the weeding were counted. The doses of the used compounds were 500, 250, 125, 60, 30, 15 g/ha, and the averages were obtained by repeating for three times.

In a further experiment the test system is Echinochloa crusgali.
Description: as §1, §2, §3

The subject of a further experiment is Digitaria sanguinalis.
Description: as §1, §2, §3

With `C=CC[S@@+]([O-])c1c(S(C)(=O)=O)ccc(C(=O)Nc2nnc(C)o2)c1C` [Compound 496], the “weeding effect in post-emergence stage, activity level (growth control rate), Amaranthus retroflexus” value (from here on “weeding effect … Amaranthus retroflexus”) in the experiment on Amaranthus retroflexus is on record as 5 (Level 5: growth control rate is above 85%). Further, the “weeding effect in post-emergence stage, activity level (growth control rate), Echinochloa crusgali” value (“weeding effect … Echinochloa crusgali” below) with Echinochloa crusgali is 5 (Level 5: growth control rate is above 85%).

For the molecule `C#CC[S@@+]([O-])c1c(S(C)(=O)=O)ccc(C(=O)Nc2nnc(C)o2)c1C` [Compound 497], the “weeding effect … Amaranthus retroflexus” value in the experiment on Amaranthus retroflexus is on record as 5 (Level 5: growth control rate is above 85%). Further, the “weeding effect … Echinochloa crusgali” value with Echinochloa crusgali was 5 (Level 5: growth control rate is above 85%).

As for `Cc1nnc(NC(=O)c2ccc(S(C)(=O)=O)c([S@+]([O-])CC3CC3)c2C)o1` [Compound 498], the “weeding effect … Amaranthus retroflexus” value in the experiment with Amaranthus retroflexus is reported as 5 (Level 5: growth control rate is above 85%). Further, the “weeding effect … Echinochloa crusgali” value in the experiment with Echinochloa crusgali is listed as 5 (Level 5: growth control rate is above 85%).

Turning to `Cc1nnc(NC(=O)c2ccc(S(C)(=O)=O)c([S@+]([O-])CCF)c2C)o1` [Compound 499], the “weeding effect … Amaranthus retroflexus” value in the experiment with Amaranthus retroflexus is reported as 5 (Level 5: growth control rate is above 85%). Besides, the “weeding effect … Echinochloa crusgali” value in the experiment with Echinochloa crusgali is reported as 5 (Level 5: growth control rate is above 85%).

As to `Cc1nnc(NC(=O)c2ccc(S(C)(=O)=O)c([S@+]([O-])CC(F)(F)F)c2C)o1` [Compound 500], the “weeding effect … Amaranthus retroflexus” value in the experiment with Amaranthus retroflexus is given as 5 (Level 5: growth control rate is above 85%). For the same molecule, in the experiment with Echinochloa crusgali, the “weeding effect … Echinochloa crusgali” value is listed as 5 (Level 5: growth control rate is above 85%).

As for `Cc1nnc(NC(=O)c2ccc(S(C)(=O)=O)c([S@+]([O-])CC(C)F)c2C)o1` (stereo partly drawn) [Compound 501], the “weeding effect … Amaranthus retroflexus” value in the experiment with Amaranthus retroflexus was 5 (Level 5: growth control rate is above 85%). In the experiment on Echinochloa crusgali, the “weeding effect … Echinochloa crusgali” value is recorded as 5 (Level 5: growth control rate is above 85%).

In the case of `Cc1c(C(=O)Nc2nnnn2C)ccc(S(C)(=O)=O)c1[S@@+](C)[O-]` [Compound 511], the “weeding effect … Amaranthus retroflexus” value with Amaranthus retroflexus was 5 (Level 5: growth control rate is above 85%). Besides, in the experiment with Echinochloa crusgali, the “weeding effect … Echinochloa crusgali” value is recorded as 5 (Level 5: growth control rate is above 85%).

For `CCC[S@@+]([O-])c1c(S(C)(=O)=O)ccc(C(=O)Nc2nnnn2C)c1C` [Compound 512], in the experiment with Amaranthus retroflexus, the “weeding effect … Amaranthus retroflexus” value is given as 5 (Level 5: growth control rate is above 85%). Further, the “weeding effect … Echinochloa crusgali” value in the experiment on Echinochloa crusgali is reported as 5 (Level 5: growth control rate is above 85%).

On to `Cc1c(C(=O)Nc2nnnn2C)ccc(S(C)(=O)=O)c1[S@+]([O-])C(C)C` [Compound 513], for which the “weeding effect … Amaranthus retroflexus” value with Amaranthus retroflexus is recorded as 5 (Level 5: growth control rate is above 85%). In addition, the “weeding effect … Echinochloa crusgali” value with Echinochloa crusgali is 5 (Level 5: growth control rate is above 85%).

`Cc1c(C(=O)Nc2nnnn2C)ccc(S(C)(=O)=O)c1[S@+]([O-])CC(C)C` [Compound 515]: the “weeding effect … Amaranthus retroflexus” value in the experiment on Amaranthus retroflexus is reported as 5 (Level 5: growth control rate is above 85%). Moreover, the “weeding effect … Echinochloa crusgali” value in the experiment with Echinochloa crusgali is given as 5 (Level 5: growth control rate is above 85%).

`C=CC[S@@+]([O-])c1c(S(C)(=O)=O)ccc(C(=O)Nc2nnnn2C)c1C` [Compound 516]: the “weeding effect … Amaranthus retroflexus” value in the experiment on Amaranthus retroflexus is given as 5 (Level 5: growth control rate is above 85%). Also, in the experiment on Echinochloa crusgali, the “weeding effect … Echinochloa crusgali” value is reported as 5 (Level 5: growth control rate is above 85%).

Take `C#CC[S@@+]([O-])c1c(S(C)(=O)=O)ccc(C(=O)Nc2nnnn2C)c1C` [Compound 517]: the “weeding effect … Amaranthus retroflexus” value in the experiment with Amaranthus retroflexus is 5 (Level 5: growth control rate is above 85%). In the experiment with Echinochloa crusgali, the “weeding effect … Echinochloa crusgali” value is reported as 5 (Level 5: growth control rate is above 85%).

On to `CSCC[S@@+]([O-])c1c(C(F)(F)F)ccc(C(=O)Nc2nnnn2C)c1SC` [Compound 595], for which the “weeding effect … Amaranthus retroflexus” value with Amaranthus retroflexus is given as 5 (Level 5: growth control rate is above 85%). The “weeding effect in post-emergence stage, activity level (growth control rate), Digitaria sanguinalis” value (“weeding effect … Digitaria sanguinalis” for short) with Digitaria sanguinalis was 5 (Level 5: growth control rate is above 85%). In addition, the “weeding effect … Echinochloa crusgali” value with Echinochloa crusgali was 5 (Level 5: growth control rate is above 85%).

As to `CSc1c(C(=O)Nc2nnnn2C)ccc(C(F)(F)F)c1[S@+]([O-])CCF` [Compound 596], the “weeding effect … Amaranthus retroflexus” value in the experiment with Amaranthus retroflexus is reported as 5 (Level 5: growth control rate is above 85%). Besides, in the experiment with Digitaria sanguinalis, the “weeding effect … Digitaria sanguinalis” value is reported as 5 (Level 5: growth control rate is above 85%). For the same molecule, the “weeding effect … Echinochloa crusgali” value in the experiment on Echinochloa crusgali is given as 5 (Level 5: growth control rate is above 85%).

For `CSC(=O)C[S@@+]([O-])c1c(C(F)(F)F)ccc(C(=O)Nc2nnc(C)o2)c1F` [Compound 597], the “weeding effect … Amaranthus retroflexus” value in the experiment on Amaranthus retroflexus is 5 (Level 5: growth control rate is above 85%). In addition, the “weeding effect … Digitaria sanguinalis” value in the experiment with Digitaria sanguinalis is 5 (Level 5: growth control rate is above 85%). Further, the “weeding effect … Echinochloa crusgali” value with Echinochloa crusgali is given as 5 (Level 5: growth control rate is above 85%).

For `CSCCC[S@@+]([O-])c1c(C(F)(F)F)ccc(C(=O)Nc2nnc(C)o2)c1F` [Compound 598], the “weeding effect … Amaranthus retroflexus” value with Amaranthus retroflexus is given as 5 (Level 5: growth control rate is above 85%). Moreover, the “weeding effect … Digitaria sanguinalis” value in the experiment with Digitaria sanguinalis is recorded as 5 (Level 5: growth control rate is above 85%). The “weeding effect … Echinochloa crusgali” value in the experiment on Echinochloa crusgali is recorded as 5 (Level 5: growth control rate is above 85%).

With `CSCCC[S@@+]([O-])c1c(C(F)(F)F)ccc(C(=O)Nc2nnc(C)o2)c1SC` [Compound 599], in the experiment on Amaranthus retroflexus, the “weeding effect … Amaranthus retroflexus” value is reported as 5 (Level 5: growth control rate is above 85%). Also, the “weeding effect … Digitaria sanguinalis” value in the experiment on Digitaria sanguinalis is listed as 5 (Level 5: growth control rate is above 85%). For the same molecule, the “weeding effect … Echinochloa crusgali” value in the experiment with Echinochloa crusgali was 5 (Level 5: growth control rate is above 85%).

Consider `CCC[S@@+]([O-])c1c(C(F)(F)F)ccc(C(=O)Nc2ncn[nH]2)c1F` [Compound 600], for which, in the experiment on Amaranthus retroflexus, the “weeding effect … Amaranthus retroflexus” value is on record as 5 (Level 5: growth control rate is above 85%). Also, the “weeding effect … Digitaria sanguinalis” value in the experiment with Digitaria sanguinalis is recorded as 5 (Level 5: growth control rate is above 85%). Moreover, the “weeding effect … Echinochloa crusgali” value with Echinochloa crusgali was 5 (Level 5: growth control rate is above 85%).

`Cc1c(C(=O)Nc2nnnn2C)ccc(S(C)(=O)=O)c1[S@+]([O-])CCCC(F)(F)F` [Compound 601]: the “weeding effect … Amaranthus retroflexus” value in the experiment on Amaranthus retroflexus was 5 (Level 5: growth control rate is above 85%). The “weeding effect … Digitaria sanguinalis” value in the experiment with Digitaria sanguinalis is on record as 5 (Level 5: growth control rate is above 85%). The “weeding effect … Echinochloa crusgali” value with Echinochloa crusgali is recorded as 5 (Level 5: growth control rate is above 85%).

For `Cc1nnc(NC(=O)c2ccc(S(C)(=O)=O)c([S@+]([O-])CCC(C)(C)C)c2C)o1` [Compound 602], in the experiment with Amaranthus retroflexus, the “weeding effect … Amaranthus retroflexus” value is 5 (Level 5: growth control rate is above 85%). For the same molecule, the “weeding effect … Digitaria sanguinalis” value in the experiment on Digitaria sanguinalis was 5 (Level 5: growth control rate is above 85%). The “weeding effect … Echinochloa crusgali” value in the experiment with Echinochloa crusgali was 5 (Level 5: growth control rate is above 85%).

With `Cc1c(C(=O)Nc2nnnn2C)ccc(S(C)(=O)=O)c1[S@+]([O-])CCC(C)(C)C` [Compound 603], the “weeding effect … Amaranthus retroflexus” value in the experiment on Amaranthus retroflexus is 5 (Level 5: growth control rate is above 85%). Besides, in the experiment with Digitaria sanguinalis, the “weeding effect … Digitaria sanguinalis” value is listed as 5 (Level 5: growth control rate is above 85%). For the same molecule, the “weeding effect … Echinochloa crusgali” value in the experiment on Echinochloa crusgali is 5 (Level 5: growth control rate is above 85%).

On to `Cc1nnc(NC(=O)c2ccc(S(C)(=O)=O)c([S@+]([O-])CC(=O)N(C)C)c2C)o1` [Compound 604], for which, in the experiment with Amaranthus retroflexus, the “weeding effect … Amaranthus retroflexus” value was 5 (Level 5: growth control rate is above 85%). The “weeding effect … Digitaria sanguinalis” value in the experiment on Digitaria sanguinalis was 5 (Level 5: growth control rate is above 85%). Also, in the experiment with Echinochloa crusgali, the “weeding effect … Echinochloa crusgali” value is given as 5 (Level 5: growth control rate is above 85%).
